Assay [1] deals with human cervical carcinoma Hela cells. As to the kind of experiment: MTT cell viability assay, Hela. The conditions noted are these: 48 h, read-out: Cell viability as a percentage of the cells treated with DMSO, Hela. Format: cell-based. Put shortly: (§1)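 Cells cultured in DMEM with 10% FBS were treated with compounds at 20 uM or 40 uM. Viability was read by MTT and expressed as a percentage of DMSO-treated cells.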

Assay [2] has as its system human breast cancer MCF7 cells. As to the kind of experiment: MTT cell viability assay, MCF-7. The conditions noted are these: 48 h, read-out: Cell viability as a percentage of the cells treated with DMSO, MCF-7. The format is cell-based. Put shortly:
as §1

The target in the next assay is T1, full-length FXR (Homo sapiens, UniProt Q96RI1).
T1 construct: The cells were co-transfected with plasmids encoding full-length FXR and the cognate luciferase reporter EcRE-Luc; expressed in transfected cells; host or cells: COS-7
T1 sequence (Q96RI1 1-486): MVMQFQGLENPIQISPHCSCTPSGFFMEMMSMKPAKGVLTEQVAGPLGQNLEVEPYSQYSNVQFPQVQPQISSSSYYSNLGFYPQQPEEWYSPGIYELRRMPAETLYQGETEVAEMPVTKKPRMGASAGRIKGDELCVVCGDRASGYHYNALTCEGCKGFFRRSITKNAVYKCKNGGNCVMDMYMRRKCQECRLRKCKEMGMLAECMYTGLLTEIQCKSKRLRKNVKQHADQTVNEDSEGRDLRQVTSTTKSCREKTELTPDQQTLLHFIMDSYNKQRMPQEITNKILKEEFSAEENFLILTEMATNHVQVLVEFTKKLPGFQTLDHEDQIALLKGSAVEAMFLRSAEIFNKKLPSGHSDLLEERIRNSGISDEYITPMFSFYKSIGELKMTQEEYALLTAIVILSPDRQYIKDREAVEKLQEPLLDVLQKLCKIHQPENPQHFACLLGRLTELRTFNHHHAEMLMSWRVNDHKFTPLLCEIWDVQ
As to the kind of experiment: Cell-based FXR transactivation, EcRE luciferase reporter in COS-7 cells. As to conditions: for Cell-based FXR transactivation Fold changes by 5 μM compound: positive: induction, minus: repression; for EC50 / fold induction at 5 µM: EcRE luciferase reporter; for Cell-based FXR transactivation Fold changes by 5 μM compound / fold induction at 5 µM: 5 μM compound. Put shortly: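 COS-7 cells were transiently cotransfected with full-length FXR, EcRE-Luc reporter and a renilla control. Ligands were added 5 h after transfection, and cells were harvested 24 h later. Firefly luciferase was normalized to renilla in a dual-luciferase read-out.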

Assay [3] has as its system RA-resistant human colon cancer HCT116 cells. As to the kind of experiment: MTT cell viability assay, HCT116. The format is cell-based. The conditions noted are these: 48 h, read-out: Cell viability as a percentage of the cells treated with DMSO, HCT116; for viability at 20 µM: HCT-116, 20 uM; for viability at 40 µM: HCT-116, 40 uM. In short, it runs like this: as §1
In assay [4] the test system is human colorectal adenocarcinoma HCT15 cells. As to the kind of experiment: MTT cell viability assay, HCT15. Format: cell-based. The conditions noted are these: 48 h, read-out: Cell viability as a percentage of the cells treated with DMSO, HCT15; for viability at 20 µM: HCT-15, 20 uM; for viability at 40 µM: HCT-15, 40 uM. In short, it runs like this: as §1
Assay [5] concerns the target T2, FXR ligand binding domain (LBD) (Homo sapiens, UniProt Q96RI1).
T2 construct: made in house
T2 sequence (Q96RI1 262-486 limits assumed): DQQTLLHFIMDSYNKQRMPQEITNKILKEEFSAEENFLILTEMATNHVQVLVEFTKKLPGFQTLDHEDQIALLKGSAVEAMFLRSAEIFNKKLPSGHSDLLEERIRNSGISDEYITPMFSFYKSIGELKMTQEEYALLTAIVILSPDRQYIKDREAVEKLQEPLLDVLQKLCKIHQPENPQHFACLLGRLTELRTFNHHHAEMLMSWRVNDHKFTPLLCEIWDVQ
As to the kind of experiment: AlphaScreen assay: FXR LBD recruitment of coregulator peptide motifs (SRC2-3, SRC1-2). Format: biochemical.

Assay [6] deals with human hepatoma HepG2 cells. As to the kind of experiment: MTT cell viability assay, HepG2. The format is cell-based. The conditions noted are these: 48 h, read-out: Cell viability as a percentage of the cells treated with DMSO, HepG2. In short, it runs like this: as §1
The mark [7] stands for this setting: SRC1-2 peptide, Table 2, read-out: EC50 (μM) of FXR binding by AlphaScreen assay recruit SRC1-2.
Setting [8] is: SRC2-3 peptide, Table 2, read-out: EC50 (μM) of FXR binding by AlphaScreen assay recruit SRC2-3.
The mark [9] stands for this setting: SRC1-2 peptide, Table 1, read-out: EC50 (μM) of FXR binding by AlphaScreen assay recruit SRC1-2.
Setting [10] is: SRC2-3 peptide, Table 1, read-out: EC50 (μM) of FXR binding by AlphaScreen assay recruit SRC2-3.

Like-named read-outs stand apart in the source and are kept apart here.

As for `CC1(C)C2CCC1(C)C(OC(=O)c1ccc(N)cc1)C2` (stereo not drawn) [XD-5, 1,7,7-trimethyl-bicyclo[2.2.1]-heptan-2-yl 4-aminobenzoate], the viability at 20 µM in assay [1] turned out to be 93 ± 4%; in assay [2], 100 ± 3%; in assay [3] it was 88 ± 2%; in assay [4], 80 ± 4%; in assay [6], 95 ± 1%. The viability at 40 µM in assay [1] came out at 46 ± 3%; in assay [2], 20%; in assay [3] it was 30 ± 3%; in assay [4], 30 ± 4%; in assay [6], 40 ± 1%. The “Cell-based FXR transactivation Fold changes by 5 μM compound” value at full-length FXR (Table 2) is recorded as over 10. Besides, the figures for the EC50 (at full-length FXR (Table 2); in assay [5] (setting [7]); in assay [5] (setting [8])) were under 1000 nM, under 1 µM and under 1 µM, respectively.
In the case of `Cc1cc(C(=O)OC2CC3CCC2(C)C3(C)C)ccc1N` (stereo not drawn) [XD-4, 1,7,7-trimethyl-bicyclo[2.2.1]-heptan-2-yl 4-amino-3-methylbenzoate], the viability at 20 µM was 95 ± 4% in assay [1]; 100 ± 9% in assay [2]; 81 ± 2% in assay [3]; 79 ± 2% in assay [4]; 90 ± 5% in assay [6]. In addition, the viability at 40 µM in assay [1] is 36 ± 2%; in assay [2], 23%; in assay [3] it was 27 ± 1%; in assay [4], 41 ± 3%; in assay [6] it was 42 ± 1%. At full-length FXR (Table 2), the “Cell-based FXR transactivation Fold changes by 5 μM compound” value is recorded as over 10. The EC50 at full-length FXR (Table 2) was under 1000 nM; in assay [5] (setting [7]) it was under 1 µM; in assay [5] (setting [8]), under 1 µM.
For the compound `O=C(OC1CCCCCCC1)c1ccc(O)cc1` [XD-10, cyclooctyl 4-hydroxybenzoate], the viability at 20 µM in assay [1] stood at 90 ± 4%; in assay [2], 93 ± 7%; in assay [3], 92 ± 6%; in assay [4], 60 ± 4%; in assay [6], 90 ± 3%. The viability at 40 µM in assay [1] stood at 40 ± 3%; in assay [2] it was 28%; in assay [3], 30 ± 4%; in assay [4], 41 ± 4%; in assay [6] it was 35 ± 1%. This compound gave a fold induction at 5 µM at full-length FXR (Table 1) of 8. Also, the half-maximal effective concentration (EC50) at full-length FXR (Table 1) was under 1000 nM; in assay [5] (setting [9]), under 1 µM; in assay [5] (setting [10]), under 1 µM.
Turning to `COc1cc(C(=O)O[C@H]2C[C@H]3CC[C@]2(C)C3(C)C)ccc1O` [Tschimganine], the viability at 20 µM was found to be 98 ± 2% in assay [1]; 100 ± 3% in assay [2]; 97 ± 1% in assay [3]; 100 ± 1% in assay [4]; 100 ± 1% in assay [6]. Also, the viability at 40 µM in assay [1] came out at 97 ± 4%; in assay [2], 99 ± 3%; in assay [3] it was 90 ± 4%; in assay [4], 80 ± 9%; in assay [6], 97 ± 3%. The fold induction at 5 µM on full-length FXR (Table 1) was over 10. The EC50 was under 1000 nM on full-length FXR (Table 1), under 1 µM in assay [5] (setting [9]) and under 1 µM in assay [5] (setting [10]).
For the compound `Cc1cc(C(=O)OC2CCC3CCCCC3C2)ccc1[N+](=O)[O-]` (stereo not drawn) [XD-35, decahydro-naphthalen-2-yl 3-methyl-4-nitro-benzoate], the viability at 20 µM is 94 ± 2% in assay [1]; 100 ± 2% in assay [2]; 95 ± 2% in assay [3]; 100 ± 2% in assay [4]; 100 ± 2% in assay [6]. Further, the viability at 40 µM turned out to be 93 ± 2% in assay [1]; 100 ± 2% in assay [2]; 93 ± 2% in assay [3]; 93 ± 2% in assay [4]; 93 ± 2% in assay [6]. Moreover, the “Cell-based FXR transactivation Fold changes by 5 μM compound” value at full-length FXR (Table 2) was determined as 2. The concentration for a half-maximal effect (EC50) was 1000 to 10000 nM on full-length FXR (Table 2) and 1 to 10 µM in assay [5] (setting [8]).

These data come from patent US20180116993A1, “MODULATORS OF FARNESOID X RECEPTOR AND METHODS FOR THE USE THEREOF” (XIAMEN UNIVERSITY, priority 2015, published 2018).
